Data published in patent publication US20240342292A1, “Compounds for the Degradation of EGFR Kinase” (BeiGene Switzerland GmbH, priority 2021, published 2024).

Tests used:
Del19/T790M/C797S EGFR = assay: EGFR degradation HTRF assay in H1975-clone #28 (DTC) cells; type: cell-based; conditions: H1975 # 28 DTC (Del19/T790M/C797S), 16h treatment; for DC50: HTRF; for Dmax (%): maximum percentage of degradation
How it was run: (§1)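 H1975 clones stably overexpressing mutant EGFR by lentivirus, with endogenous EGFR knocked out by sgRNA and homozygosity confirmed by sequencing, were treated 16 h at 37 °C with compounds in 0.2% DMSO medium, 8 doses from 10 uM in 5-fold dilution. Lysates were read by HTRF (665/620 nm); DC50 came from a four-parameter fit.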

L858R/T790M/C797S EGFR = target: T1, L858R/T790M/C797S EGFR (Homo sapiens, UniProt P00533, C797S/L858R/T790M); assay: EGFR degradation HTRF assay in H1975-clone #25 (LTC) cells; type: cell-based; conditions: 16h treatment; for DC50: H1975 # 25-LTC (L858R/T790M/C797S), HTRF; for Dmax: NCI-H1975, H1975 # 25-LTC (L858R/T790M/C797S), maximum percentage of degradation
T1 construct: expressed in transfected cells; host or cells: H1975 clone #25 (lentiviral over-expression, endogenous EGFR knocked out by sgRNA)
T1 sequence (P00533 25-1210 T790M/C797S/L858R): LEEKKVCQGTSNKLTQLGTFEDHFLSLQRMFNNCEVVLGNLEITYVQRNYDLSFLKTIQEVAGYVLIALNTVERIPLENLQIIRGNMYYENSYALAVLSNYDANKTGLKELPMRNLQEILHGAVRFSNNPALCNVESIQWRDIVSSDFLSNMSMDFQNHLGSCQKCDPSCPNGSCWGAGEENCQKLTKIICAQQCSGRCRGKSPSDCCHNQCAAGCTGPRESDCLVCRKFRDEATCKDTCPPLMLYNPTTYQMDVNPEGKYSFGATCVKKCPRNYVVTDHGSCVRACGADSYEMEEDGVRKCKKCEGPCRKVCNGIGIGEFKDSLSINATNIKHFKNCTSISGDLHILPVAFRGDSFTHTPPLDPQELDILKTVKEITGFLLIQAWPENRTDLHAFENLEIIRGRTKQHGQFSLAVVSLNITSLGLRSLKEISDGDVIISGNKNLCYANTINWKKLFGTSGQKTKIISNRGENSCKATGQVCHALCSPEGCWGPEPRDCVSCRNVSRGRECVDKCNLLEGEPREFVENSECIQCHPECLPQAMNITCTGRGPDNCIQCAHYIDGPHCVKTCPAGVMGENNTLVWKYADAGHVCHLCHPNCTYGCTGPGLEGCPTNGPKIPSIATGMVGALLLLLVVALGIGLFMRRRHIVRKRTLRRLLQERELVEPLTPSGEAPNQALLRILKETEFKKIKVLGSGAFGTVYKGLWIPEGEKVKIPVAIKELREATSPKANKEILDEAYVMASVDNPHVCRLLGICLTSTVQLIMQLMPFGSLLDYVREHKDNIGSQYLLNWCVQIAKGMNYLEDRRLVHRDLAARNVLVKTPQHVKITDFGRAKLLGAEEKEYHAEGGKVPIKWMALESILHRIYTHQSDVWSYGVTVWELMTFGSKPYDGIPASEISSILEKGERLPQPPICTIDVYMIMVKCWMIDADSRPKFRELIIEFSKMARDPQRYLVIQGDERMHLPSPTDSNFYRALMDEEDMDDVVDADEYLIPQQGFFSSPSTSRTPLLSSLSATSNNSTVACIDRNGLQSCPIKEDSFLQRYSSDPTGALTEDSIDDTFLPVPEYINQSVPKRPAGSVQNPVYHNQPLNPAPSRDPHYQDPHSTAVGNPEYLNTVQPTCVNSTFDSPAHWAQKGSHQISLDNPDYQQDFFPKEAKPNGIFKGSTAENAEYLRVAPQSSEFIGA
How it was run: as §1

Row | DC50 (Del19/T790M/C797S EGFR) | DC50 (L858R/T790M/C797S EGFR) | Dmax (L858R/T790M/C797S EGFR) | SMILES | Dmax (%) (Del19/T790M/C797S EGFR)
1 | 2.17 nM | 0.705 nM | 87.9% | Cc1cc2cc(n1)-c1cnn(C)c1OCCC[C@@H](C)CN1/C(=N/C2=O)Nc2ccc(CN3CCN(CC4CN(c5cc(F)c([C@H]6CCC(=O)NC6=O)c(F)c5)C4)CC3)cc21 [Example 150, (R)-3-(2,6-difluoro-4-(3-((4-(((R,E)-1^1,2^6,7-trimethyl-3-oxo-5^2,5^1-dihydro-1^1H,5^1H-11-oxa-4-aza-5(2,1)-benzo[d]imidazola-2(2,4)-pyridina-(4,5)-pyrazolacycloundecaphane-5^6-yl)methyl)piperazin-1-yl)methyl)azetidin-1-yl)phenyl)piperidine-2,6-dione] | 79.66%
2 | 0.994 nM | 0.998 nM | 79.4% | Cc1cc2cc(n1)-c1cnn(C)c1OCCC[C@H](C)CN1/C(=N/C2=O)Nc2c(C)cc(CN3CCN(C(=O)C4CN(c5cc(F)c([C@H]6CCC(=O)NC6=O)c(F)c5)C4)CC3)cc21 [Example 154, (R)-3-(2,6-difluoro-4-(3-(4-(((S,E)-11,26,54,7-tetramethyl-3-oxo-5^2,5^1-dihydro-1^1H,5^1H-11-oxa-4-aza-5(2,1)-benzo[d]imidazola-2(2,4)-pyridina-1(4,5)-pyrazolacycloundecaphane-5^6-yl)methyl)piperazine-1-carbonyl)azetidin-1-yl)phenyl)piperidine-2,6-dione] | 78.94%
3 | 1.2 nM | 0.634 nM | 86.9% | Cc1cc2cc(n1)-c1cnn(C)c1OCCC[C@@H](C)CN1/C(=N/C2=O)Nc2ccc(OC3CCN(C(=O)C4CN(c5cc(F)c([C@H]6CCC(=O)NC6=O)c(F)c5)C4)CC3)cc21 [Example 156, (R)-3-(2,6-difluoro-4-(3-(4-(((R,E)-1^1,2^6,7-trimethyl-3-oxo-5^2,5^3-dihydro-1^1H,5^1H-11-oxa-4-aza-5(2,1)-benzo[d]imidazola-2(2,4)-pyridina-1(4,5)-pyrazolacycloundecaphane-5^6-yl)oxy)piperidine-1-carbonyl)azetidin-1-yl)phenyl)piperidine-2,6-dione] | 72.74%
4 | 0.868 nM | 0.852 nM | 82.2% | Cc1cc2cc(n1)-c1cnn(C)c1OCCC[C@@H](C)CN1/C(=N/C2=O)Nc2ccc(C3CCN(C(=O)C4CN(c5cc(F)c([C@H]6CCC(=O)NC6=O)c(F)c5)C4)CC3)cc21 [Example 158, (R)-3-(2,6-difluoro-4-(3-(4-((R,E)-1^1,2^6,7-trimethyl-3-oxo-5^2,5-dihydro-1^1H,5^1H-11-oxa-4-aza-5(2, 1)-benzo[d]imidazola-2(2,4)-pyridina-1(4,5)-pyrazolacycloundecaphane-5^6-yl)piperidine-1-carbonyl)azetidin-1-yl)phenyl)piperidine-2,6-dione] | 72.14%
5 | 1.77 nM | 1.48 nM | 79.9% | Cc1cc2cc(n1)-c1cnn(C)c1OCCC[C@@H](C)CN1/C(=N/C2=O)Nc2ccc(CC3CCN(C(=O)C4CN(c5cc(F)c([C@H]6CCC(=O)NC6=O)c(F)c5)C4)CC3)cc21 [Example 159, (R)-3-(2,6-difluoro-4-(3-(4-(((R,E)-1^1,2^6,7-trimethyl-3-oxo-5^2,5^3-dihydro-1^1H,5^1H-11-oxa-4-aza-5(2,1)-benzo[d]imidazola-2(2,4)-pyridina-1(4,5)-pyrazolacycloundecaphane-5^6-yl)methyl)piperidine-1-carbonyl)azetidin-1-yl)phenyl)piperidine-2,6-dione] | 79.77%
6 | 0.557 nM | 0.598 nM | 79.1% | Cc1cc2cc(n1)-c1cnn(C)c1OCCC[C@@H](C)CN1/C(=N/C2=O)Nc2ccc(CN3CCN(C(=O)C4CCN(c5cc(F)c([C@H]6CCC(=O)NC6=O)c(F)c5)CC4)CC3)cc21 [Example 162, (R)-3-(2,6-difluoro-4-(4-(4-(((R,E)-1^1,2^6,7-trimethyl-3-oxo-5^2, 5^3-dihydro-1^1H,5^1H-11-oxa-4-aza-5(2,1)-benzo[d]imidazola-2(2,4)-pyridina-1(4,5)-pyrazolacycloundecaphane-5^6-yl)methyl)piperazine-1-carbonyl)piperidin-1-yl)phenyl)piperidine-2,6-dione] | 71.45%
7 | 1.95 nM | 1.46 nM | 83.1% | Cc1cc2cc(n1)-c1cnn(C)c1OCCC[C@@H](C)CN1/C(=N/C2=O)Nc2ccc(CN3CC4CCC3CN4C(=O)[C@@H]3CCN(c4cc(F)c([C@H]5CCC(=O)NC5=O)c(F)c4)C3)cc21 (stereo partly drawn) [Example 164, (3R)-3-(2,6-difluoro-4-((3R)-3-(5-(((R,E)-1^1,2^6,7-trimethyl-3-oxo-5^2,5^3-dihydro-1^1H,5^1H-11-oxa-4-aza-5(2,1)-benzo[d]imidazola-2(2,4)-pyridina-1(4,5)-pyrazolacycloundecaphane-5^6-yl)methyl)-2,5-diazabicyclo[2.2.2]octane-2-carbonyl)pyrrolidin-1-yl)phenyl)piperidine-2,6-dione] | 73.21%
8 | 2.95 nM | 3.1 nM | 79.9% | Cc1cc2cc(n1)-c1cnn(C3CC3)c1OCCC[C@@H](C)CN1/C(=N/C2=O)Nc2ccc(CN3CCN(C(=O)[C@H]4CN(c5cc(F)c([C@H]6CCC(=O)NC6=O)c(F)c5)CC4(C)C)CC3)cc21 [Example 165, (R)-3-(4-((R)-4-(4-(((R,E)-11-cyclopropyl-2^6,7-dimethyl-3-oxo-5^2,5^3-dihydro-1^1H,5^1H-11-oxa-4-aza-5(2,1)-benzo[d]imidazola-2(2,4)-pyridina-1(4,5)-pyrazolacycloundecaphane-5^6-)n-methyl)piperazine-1-carbonyl)-3,3-dimethylpyrrolidin-1-yl)-2,6-difluorophenyl)piperidine-2,6-dione] | 74.73%
9 | 0.663 nM | 0.954 nM | 90.6% | Cc1cc2cc(n1)-c1cnn(C)c1OCCC[C@@H](C)CN1/C(=N/C2=O)Nc2ccc(N(C)C3CCN(C(=O)[C@@H]4CCN(c5cc(F)c([C@H]6CCC(=O)NC6=O)c(F)c5)C4)CC3)cc21 [Example 172, (R)-3-(2,6-difluoro-4-((R)-3-(4-(methyl((R,E)-1^1,2^6,7-trimethyl-3-oxo-5^2,5^3-dihydro-1^1H,5^1H-11-oxa-4-aza-5(2,1)-benzo[d]imidazola-2(2,4)-pyridina-1(4,5)-pyrazolacycloundecaphane-5^6-yl)amino)piperidine-1-carbonyl)pyrrolidin-1-yl)phenyl)piperidine-2,6-dione] | 75.08%
10 | 0.752 nM | 1.04 nM | 87.1% | Cc1cc2cc(n1)-c1cnn(C)c1OCCC[C@@H](C)CN1/C(=N/C2=O)Nc2ccc(CN3C[C@@H]4C[C@H]3CN4C(=O)[C@H]3CN(c4cc(F)c([C@H]5CCC(=O)NC5=O)c(F)c4)CC3(C)C)cc21 [Example 185, (R)-3-(4-((R)-3,3-dimethyl-4-((1S,4S)-5-(((R,E)-1^1,2^6,7-trimethyl-3-oxo-5^2,5^3-dihydro-1^1H,5^1H-11-oxa-4-aza-5(2,1)-benzo[d]imidazola-2(2,4)-pyridina-1(4,5)-pyrazolacycloundecaphane-5^6-yl)methyl)-2,5-diazabicyclo[2.2.1]heptane-2-carbonyl)pyrrolidin-1-yl)-2,6-difluorophenyl)piperidine-2,6-dione] | 60.18%
11 | 0.742 nM | 1.17 nM | 82.2% | Cc1cc2cc(n1)-c1cnn(C)c1OCCC[C@@H](C)CN1/C(=N/C2=O)Nc2ccc(CN3CCN(C(=O)[C@@H]4CCN(c5cc(F)c([C@H]6CCC(=O)NC6=O)c(F)c5)C4(C)C)C[C@@H]3C)cc21 [Example 190, (R)-3-(4-((R)-2,2-dimethyl-3-((S)-3-methyl-4-(((R,E)-1^1,2^6,7-trimethyl-3-oxo-5^2,5^3-dihydro-1^1H,5^1H -11-oxa-4-aza-5(2,1)-benzo[d]imidazola-2(2,4)-pyridina-(4,5)-pyrazolacycloundecaphane-5^6-yl)methyl)piperazine-1-carbonyl)pyrrolidin-1-yl)-2,6-difluorophenyl)piperidine-2,6-dione] | 64.16%

Row | SMILES | DC50 (Del19/T790M/C797S EGFR) | DC50 (L858R/T790M/C797S EGFR) | Dmax (L858R/T790M/C797S EGFR) | Dmax (%) (Del19/T790M/C797S EGFR)
12 | Cc1cc2cc(n1)-c1cnn(C)c1OCCC[C@@H](C)CN1/C(=N/C2=O)Nc2ccc(CN3CC4CC(C3)N4C(=O)[C@@H]3CCN(c4cc(F)c([C@H]5CCC(=O)NC5=O)c(F)c4)C3)cc21 [Example 163, (3R)-3-(2,6-difluoro-4-((3R)-3-(3-(((R,E)-1^1,2^6,7-trimethyl-3-oxo-5^2,5^3-dihydro-1^1H,5^1H-11-oxa-4-aza-5(2,1)-benzo[d]imidazola-2(2,4)-pyridina-1(4,5)-pyrazolacycloundecaphane-5^6-yl)methyl)-3,6-diazabicyclo[3.1.1]heptane-6-carbonyl)pyrrolidin-1-yl)phenyl)piperidine-2,6-dione] | 1.76 nM | 1.14 nM | 83.1% | 66.41%
13 | Cc1cc2cc(n1)-c1cnn(C)c1OCCC[C@@H](C)CN1/C(=N/C2=O)Nc2ccc(CN3C4CCC3CN(C(=O)[C@@H]3CCN(c5cc(F)c([C@H]6CCC(=O)NC6=O)c(F)c5)C3)C4)cc21 [Example 187, (3R)-3-(2,6-difluoro-4-((3R)-3-(8-(((R,E)-1^1,2,7-trimethyl-3-oxo-5^2,5^3-dihydro-1^1H,5^1H-11-oxa-4-aza-5(2,1)-benzo[d]imidazola-2(2,4)-pyridina-1(4,5)-pyrazolacycloundecaphane-5^6-yl)methyl)-3,8-diazabicyclo[3.2.1]octane-3-carbonyl)pyrrolidin-1-yl)phenyl)piperidine-2,6-dione] | 1.8 nM | 1.01 nM | 86.1% | 80.62%
